≈ marks a conversion by molar mass, not a printed value. Where “and” joins values, the source holds several entries; their conditions need not be identical. Identical values can stand only once. Like-named read-outs stand apart in the source and are kept apart here.
Legend:
Curvularia lunata = experiment: Anti-fungal activity, MIC (NCCLS M-27A based); assay type: cell-based; settings: growth inhibited or reduced at least 90%
Description: (§1) It was active against Cryptococcus neoformans and Curvularia lunata. The cidal activity for the C. neoformans is high enough that it is clear […] against this yeast. This test was conducted using a method based upon NCCLS reference method M-27A published in 1997. Solvent, medium and growth controls were set-up with the tests. Once these were read to validate the test performance, the QC fungi were read to insure they had expected results. These steps validated the test system. DMSO was used as a drug-chemical solvent. […] The 90% cut-off is necessary for azoles, which are static and not cidal. The […] or cidal level, was determined by sub-culturing a sample from each tube showing no growth.

Cryptococcus neoformans = experiment: Anti-fungal activity, MFC (NCCLS M-27A based); assay type: cell-based; settings: cidal level
Description: as §1

[1] = system: Human Herpes Virus 8 (HHV8); experiment: Kaposi's sarcoma / HHV8 DNA copy number in TPA-induced BCBL-1 cells; assay type: cell-based; settings: HHV8, BCBL-1 cells
Description: (§2) The DNA copy number and the toxicity value were measured and compared with Cidofovir. Kaposi's sarcoma (KS) is a cancer that is often found in people with weak immune systems, such as those taking immunosuppressants or those with AIDS. The exact nature of the disease is uncertain, but it is almost always found in association with HHV8.

[2] = Toxicity values in the HHV8 test; assay type: cell-based; settings: human, TPA-induced BCBL-1 cells; read-out: TC50 (the source's name)
Description: (§3) Toxicity quantification involves the XTT-based evaluation. Assays were designed to characterize the long term effects of the compounds on virus production and to characterize the longer term effects of the compounds on virus production from chronically HIV infected cells.
as §2

TPA-induced BCBL-1 cells = experiment: Toxicity values in the HHV8 test; assay type: cell-based
Description: as §3, §2

hepatitis B = experiment: In vitro virus production test of hepatitis B, HEPG2 2.2.15; assay type: cell-based
HEPG2 2.2.15 = experiment: Toxicity values in the hepatitis B test; assay type: cell-based; parameters: Toxicity Values, sample / Toxicity Values, mean: unit not given here
vero cells = experiment: Herpes simplex testing, toxicity (TC50); parameters: unit not given beside the values
BVDV = BVDV testing in vitro; assay type: cell-based, bovine diarrhea virus; settings: first test
Description: DMSO had no effect, as expected.
BVDV is a bovine diarrhea virus and is a well known surrogate virus for hepatitis C which cannot be cultured in vitro.

`c1ccc2[nH]c(-c3cscn3)nc2c1` [Thia, thiabendazole] gave an MIC (Curvularia lunata; read-out: MIC) of 0.03 µg/mL (≈ 0.149 µM) and an MFC (Cryptococcus neoformans; read-out: MFC) of 32 µg/mL (≈ 159 µM).
Work on `C[C@@H]1[C@H](O)[C@@H](C)/C=C/C=C/C=C/C=C/C=C/C=C/C=C/[C@H](O[C@@H]2O[C@H](C)[C@@H](O)[C@H](N)[C@@H]2O)C[C@@H]2O[C@](O)(C[C@@H](O)C[C@@H](O)[C@H](O)CC[C@@H](O)C[C@@H](O)CC(=O)O[C@H]1C)C[C@H](O)[C@H]2C(=O)O` [AmB, amphotericin B] yielded an MIC (Curvularia lunata) of 0.06 µg/mL (≈ 0.0649 µM) and an MFC (Cryptococcus neoformans) of 0.5 µg/mL (≈ 0.541 µM).
Molecule `CCC(C)n1ncn(-c2ccc(N3CCN(c4ccc(OCC5COC(Cn6cncn6)(c6ccc(Cl)cc6Cl)O5)cc4)CC3)cc2)c1=O` (stereo not shown) [Itra, Itraconazole] has an MFC (Cryptococcus neoformans; read-out: MFC) of 32 µg/mL (≈ 45.3 µM).
With `Nc1ccn(C[C@@H](CO)OCP(=O)(O)O)c(=O)n1` [Cidofovir, reference compound] the TI [1] was “TI = 19.2”, the CC50 [2] was 21.1 µM and the “% cell control” value (TPA-induced BCBL-1 cells; 0.08 μM) was 83.9%. The “% cell control” value (TPA-induced BCBL-1 cells; 0.25 μM) was 90.1%, the “% cell control” value (TPA-induced BCBL-1 cells; 0.8 μM) was 82.8% and the “% cell control” value (TPA-induced BCBL-1 cells; 2.5 μM) was 75.0%. For the same molecule, the “% cell control” value (TPA-induced BCBL-1 cells; 8 μM) was 69.3% and the “% cell control” value (TPA-induced BCBL-1 cells; 25 μM) was 4403%.
In the case of `Nc1ccn([C@@H]2CS[C@H](CO)O2)c(=O)n1` [3TC, lamivudine, reference compound], the “DNA Copy Number (per 3 μl), sample” value (hepatitis B; 0.1 μg/ml) is reported as 73.0 per 3 μl, the “% virus control” value (hepatitis B; 1 μg/ml) is reported as 1.4% and the “DNA Copy Number (per 3 μl), mean” value (hepatitis B; 1 μg/ml) is reported as 4.0 per 3 μl. For the same molecule, the IC50 (hepatitis B; Hepatitis B virus, HepG2 2.2.15) was 0.021 µg/mL (≈ 0.0916 µM), the IC50 (hepatitis B; hepatitis B, HEPG2 2.2.15) was 0.089 µg/mL (≈ 0.388 µM) and the “% cell control” value (HEPG2 2.2.15; 0.0032 μg/ml) was 90.8%. For the same molecule, the “Toxicity Values, mean” value (HEPG2 2.2.15; 0.0032 μg/ml) was 1.137, the “Toxicity Values, sample” value (HEPG2 2.2.15; 0.0032 μg/ml) was 1.173 and 1.230 and 1.009 and the “% cell control” value (HEPG2 2.2.15; 0.01 μg/ml) was 84.6%. For the same molecule, the “Toxicity Values, mean” value (HEPG2 2.2.15; 0.01 μg/ml) was 1.060, the “Toxicity Values, sample” value (HEPG2 2.2.15; 0.01 μg/ml) was 1.081 and 1.099 and 1.001 and the “% cell control” value (HEPG2 2.2.15; 0.032 μg/ml) was 94.3%. The “Toxicity Values, mean” value (HEPG2 2.2.15; 0.032 μg/ml) was 1.181, the “Toxicity Values, sample” value (HEPG2 2.2.15; 0.032 μg/ml) was 1.153 and 1.316 and 1.074 and the “Toxicity Values, mean” value (HEPG2 2.2.15; 0.1 μg/ml) was 1.190. For the same molecule, the “% cell control” value (HEPG2 2.2.15; 0.32 μg/ml) was 93.6%, the “Toxicity Values, mean” value (HEPG2 2.2.15; 0.32 μg/ml) was 1.172 and the “Toxicity Values, sample” value (HEPG2 2.2.15; 0.32 μg/ml) was 1.207 and 1.227 and 1.082. The “% cell control” value (HEPG2 2.2.15; 1 μg/ml) was 106.5%, the “Toxicity Values, mean” value (HEPG2 2.2.15; 1 μg/ml) was 1.334 and the “Toxicity Values, sample” value (HEPG2 2.2.15; 1 μg/ml) was 1.256 and 1.322 and 1.423. For the same molecule, the TC50 (HEPG2 2.2.15; HEPG2 2.2.15) was over 1 µg/mL and the TC50 (HEPG2 2.2.15; HEPG2 2.2.15, replicate experiment) was over 1 µg/mL.
`COC(=O)Nc1nc2ccccc2[nH]1` [Methyl, methyl 1,2-benzmimidazole carbamate or benomyl] gave an MIC (Curvularia lunata) of 0.03 µg/mL (≈ 0.157 µM) and an MFC (Cryptococcus neoformans) of 32 µg/mL (≈ 167 µM).
Molecule `Nc1nc2c(ncn2COCCO)c(=O)[nH]1` [Acyclovir, reference compound] has a TC50 (vero cells) of over 1.
With `NC(=O)c1ncn([C@@H]2O[C@H](CO)[C@@H](O)[C@H]2O)n1` [Ribavirin, reference compound] the “Antiviral Index (AI), TC50/IC50” value (BVDV) was 2.25.

— patent publication US6410575B1, “Viral treatment” (The Procter & Gamble Company, priority 1999, dated 2002)
